System: ^64CuCl2 (^64Cu) intestinal absorption and hepatic copper uptake
Assay: Example 2: Copper Absorption study, oral 64Cu PET-CT in healthy subjects
Assay type: in vivo, human
Conditions: healthy subjects; for mean SUV liver / hepatic uptake of labeled copper, comparison between treatments: 1 hour and 15 hours after oral 64Cu; for reduction of mean hepatic copper uptake: 1 hr scan post treatment, oral 64Cu, 7 days treatment
Description: Blood was collected at several time points to assess plasma copper kinetics. The study was carried out as a randomized, placebo-controlled intervention study. […] The study assessed the previously listed organs and the effect of anti-copper treatment by comparing the mean standard uptake value (SUV) in the organs of interest. […] The dynamic baseline scans and the subsequent static scans were compared across all treatments.

Structure (SMILES)	mean SUV liver / hepatic uptake of labeled copper, comparison between treatments	reduction of mean hepatic copper uptake
CC(C)(S)[C@@H](N)C(=O)O [penicillamine, (2S)-2-amino-3-methyl-3-sulfanylbutanoic acid, reference compound]	not different from placebo	approximately 25%
NCCNCCNCCN [trientine, N′-[2-(2-aminoethylamino)ethyl]ethane-1,2-diamine, reference compound]	significantly lower than with penicillamine	~50%

Source: patent US20250082674A1, “METHODS OF TREATING COPPER METABOLISM-ASSOCIATED DISEASES OR DISORDERS” (priority 2021, published 2025)
